Source: US4565699A, “Composition of matter and process” (The Upjohn Company, priority 1983, dated 1986)
In brackets after ≈: the same amount, converted by molar mass. Like-named read-outs stand apart in the source and are kept apart here.

Tests used:
Gram-positive bacteria = experiment: Antimicrobial spectrum; type: cell-based
Description: (§1) The assay is a standard tube dilution assay using BHI (Brain Heart Infusion medium-Difco). "UC" is a registered trademark of The Upjohn Company Culture Collection.

Solubilities = type: physicochemical
Streptococcus pneumoniae = experiment: MIC, standard tube dilution assay, BHI medium; type: cell-based; details: UC41, UC 41, read-out: Minimum inhibitory concentration
Description: as §1

Pseudomonas aeruginosa = experiment: MIC, standard tube dilution assay, BHI medium; type: cell-based
Description: as §1

Staphylococcus aureus = experiment: MIC, standard tube dilution assay, BHI medium; type: cell-based
Description: as §1

Streptococcus faecalis = experiment: MIC, standard tube dilution assay, BHI medium; type: cell-based; details: Enterococcus faecalis, UC694; UC 694; read-out: Minimum inhibitory concentration
Description: as §1

Haemophilus influenzae = experiment: MIC, standard tube dilution assay, BHI medium; type: cell-based
Description: as §1

Streptococcus pyogenes = experiment: MIC, standard tube dilution assay, BHI medium; type: cell-based; details: UC152, UC 152, read-out: Minimum inhibitory concentration
Description: as §1

Enterobacter cloacae = experiment: MIC, standard tube dilution assay, BHI medium; type: cell-based; details: UC9382, UC 9382, read-out: Minimum inhibitory concentration
Description: as §1

Citrobacter freundii = experiment: MIC, standard tube dilution assay, BHI medium; type: cell-based; details: UC3507, UC 3507, read-out: Minimum inhibitory concentration
Description: as §1

Serratia marcescens = experiment: MIC, standard tube dilution assay, BHI medium; type: cell-based; details: UC6888, UC 6888, read-out: Minimum inhibitory concentration
Description: as §1

Escherichia coli = experiment: MIC, standard tube dilution assay, BHI medium; type: cell-based; details: UC311, UC 311, read-out: Minimum inhibitory concentration
Description: as §1

Klebsiella pneumoniae = experiment: MIC, standard tube dilution assay, BHI medium; type: cell-based; details: UC58, UC 58, read-out: Minimum inhibitory concentration
Description: as §1

Question: For C=C/C(C)=C/C1(CC)SC(=O)C(CC(N)=O)=C1O (stereo not shown) [U-68,204], which “Activity against various Gram-positive bacteria” value (Gram-positive bacteria) is on record?
Answer: active

Question: What about the Solubility (Solubilities; most organic solvents) of the same compound?
Answer: soluble in most organic solvents

Question: What about the Solubility (Solubilities; water) of the same compound?
Answer: not soluble in water

Question: And the MIC (Streptococcus pneumoniae)?
Answer: > 600 µg/mL

Question: What about the MIC (Pseudomonas aeruginosa; UC6432, UC 6432, read-out: Minimum inhibitory concentration) of the same compound?
Answer: > 600 µg/mL

Question: What about the MIC (Pseudomonas aeruginosa; UC6676, UC 6676, read-out: Minimum inhibitory concentration) of the same compound?
Answer: > 600 µg/mL

Question: And the MIC (Pseudomonas aeruginosa; UC6954, UC 6954, read-out: Minimum inhibitory concentration)?
Answer: > 600 µg/mL

Question: What about the MIC (Pseudomonas aeruginosa; UC6955, UC 6955, read-out: Minimum inhibitory concentration) of the same compound?
Answer: 19 µg/mL (≈ 71.1 µM)

Question: What about the MIC (Pseudomonas aeruginosa; UC9027, UC 9027, read-out: Minimum inhibitory concentration) of the same compound?
Answer: 37.5 µg/mL (≈ 140 µM)

Question: And the MIC (Staphylococcus aureus; UC76, UC 76, read-out: Minimum inhibitory concentration)?
Answer: 75 µg/mL (≈ 281 µM)

Question: And the MIC (Staphylococcus aureus; UC3665, UC 3665, read-out: Minimum inhibitory concentration)?
Answer: 75 µg/mL (≈ 281 µM)

Question: What about the MIC (Staphylococcus aureus; UC6675, UC 6675, read-out: Minimum inhibitory concentration) of the same compound?
Answer: 75 µg/mL (≈ 281 µM)

Question: What about the MIC (Staphylococcus aureus; UC6685, UC 6685, read-out: Minimum inhibitory concentration) of the same compound?
Answer: 600 µg/mL (≈ 2240 µM)

Question: And the MIC (Streptococcus faecalis)?
Answer: > 600 µg/mL

Question: And the MIC (Haemophilus influenzae; UC6482, UC 6482, read-out: Minimum inhibitory concentration)?
Answer: 9.4 µg/mL (≈ 35.2 µM)

Question: What about the MIC (Haemophilus influenzae; UC6483, UC 6483, read-out: Minimum inhibitory concentration) of the same compound?
Answer: 19 µg/mL (≈ 71.1 µM)

Question: What about the MIC (Streptococcus pyogenes) of the same compound?
Answer: > 600 µg/mL

Question: And the MIC (Enterobacter cloacae)?
Answer: > 600 µg/mL

Question: What about the MIC (Citrobacter freundii) of the same compound?
Answer: > 600 µg/mL

Question: What about the MIC (Serratia marcescens) of the same compound?
Answer: > 600 µg/mL

Question: And the MIC (Escherichia coli)?
Answer: 600 µg/mL (≈ 2240 µM)

Question: What about the MIC (Klebsiella pneumoniae) of the same compound?
Answer: 300 µg/mL (≈ 1120 µM)
